Results reported in patent US20160150782A1, “USE OF SELECTED PYRIDONE CARBOXAMIDES OR SALTS THEREOF AS ACTIVE SUBSTANCES AGAINST ABIOTIC PLANT STRESS” (BAYER CROPSCIENCE AKTIENGESELLSCHAFT, priority 2013, published 2016).

Key:
Assay type in all cases: in vivo
[1] = tested on: Zea mays (corn); test: Drought stress test on sprayed greenhouse plants, visual damage scoring (Table 2); parameters: key: reduction in damage intensity, damage assessed in %; settings: efficacy = reduction in damage intensity, spray WP, 600 l/ha water
Description: (§1) Seeds of monocotyledonous and dicotyledonous crop plants are sown in sandy loam in plastic or wood-fiber pots, covered with soil or sand and cultivated in a greenhouse under good growth conditions. The test plants are treated at the early leaf stage (BBCH10-BBCH13). To assure uniform water supply before commencement of stress, the potted plants are supplied with water by dam irrigation prior to substance application. The inventive compounds, formulated in the form of wettable powders (WP), are sprayed onto the green parts of the plants as an aqueous suspension at an equivalent water application rate of 600 I/ha with addition of 0.2% wetting agent (e.g. agrotin). Substance application is followed immediately by stress treatment of the plants. For this purpose, the wood-fiber pots are transferred in plastic inserts in order to prevent them from subsequently drying out too quickly. Drought stress is induced by gradual drying out under the following conditions: “Day”: 14 hours with illumination at 26-30° C. “Night”: 10 hours without illumination at 18-20° C. The duration of the respective stress phases is guided mainly by the condition of the stressed control plants. […] The end of the stress phase is followed by an approx. 4-14-day recovery phase, during which the plants are once again kept under good growth conditions in a greenhouse. The duration of the recovery phase is guided mainly by when the trial plants have attained a state which enables visual scoring of potential effects, and is therefore variable. […] The damage intensity is at first assessed in percent.

[2] = tested on: Triticum aestivum; test: Drought stress test on sprayed greenhouse plants, visual damage scoring (Table 4); settings: efficacy = reduction in damage intensity, spray WP, 600 l/ha water
Description: as §1

[3] = tested on: Zea mays (corn); test: Cold stress test on sprayed greenhouse plants, visual damage scoring (Table 1); settings: efficacy = reduction in damage intensity, spray WP, 600 l/ha water
Description: Seeds of monocotyledonous and dicotyledonous crop plants are sown in sandy loam in plastic or wood-fiber pots, covered with soil or sand and cultivated in a greenhouse under good growth conditions. The test plants are treated at the early leaf stage (BBCH10-BBCH13). To assure uniform water supply before commencement of stress, the potted plants are supplied with water by dam irrigation prior to substance application.
The inventive compounds, formulated in the form of wettable powders (WP), are sprayed onto the green parts of the plants as an aqueous suspension at an equivalent water application rate of 600 I/ha with addition of 0.2% wetting agent (e.g. agrotin). Substance application is followed immediately by stress treatment of the plants. For this purpose, the wood-fiber pots are transferred in plastic inserts in order to prevent them from subsequently drying out too quickly.
The duration of the respective stress phases is guided mainly by the condition of the stressed control plants. It is ended (by re-irrigating and transfer to a greenhouse with good growth conditions) as soon as irreversible damage is observed on the stressed control plants.
The end of the stress phase is followed by an approx. 4-14-day recovery phase, during which the plants are once again kept under good growth conditions in a greenhouse. The duration of the recovery phase is guided mainly by when the trial plants have attained a state which enables visual scoring of potential effects, and is therefore variable.
Once this juncture has been reached, the intensities of damage are scored visually in comparison to untreated, unstressed controls of the same age. The damage intensity is at first assessed in percent. These values are then used to calculate the efficacy of the test compounds by the following formula:
[formula] • E: Efficacy=reduction in damage intensity as a result of treatment with test substance • DIs: Damage intensity of the stressed control plants • DIt: Damage intensity of the plants treated with test compound […]

[4] = tested on: Brassica napus; test: Drought stress test on sprayed greenhouse plants, visual damage scoring (Table 3); parameters: key: reduction in damage intensity, damage assessed in %; settings: efficacy = reduction in damage intensity, dosage 25 g/ha, spray WP, 600 l/ha water
Description: as §1

| Structure (SMILES) | E (ZEAMX) ([1]; dosage 25 g/ha) | E (TRZAS) ([2]; dosage 25 g/ha) | further results |
| --- | --- | --- | --- |
| CCCNC(=O)c1cc(I)c(CCC)[nH]c1=O [compound 3920] | >5 | >5 |  |
| CC(C)C(C)NC(=O)c1cc(Br)c(C(F)C(F)(F)F)[nH]c1=O (stereo not shown) [compound 2128] | >5 |  | E:E (ZEAMX) ([3]; dosage 250 g/ha): >5 |
| COCCNC(=O)c1cc(C)c(C(F)(F)C(F)(F)F)[nH]c1=O [compound 266] | >5 | >5 | E (BRSNS) [4]: >5 |
| CCCc1[nH]c(=O)c(C(=O)NCCC(C)C)cc1I [compound 3940] | >5 | >5 |  |
| Cc1cc(C(=O)NCCO)c(=O)[nH]c1C(F)(F)C(F)(F)F [compound 265] |  |  | E:E (ZEAMX) ([3]; dosage 10 g/ha): >5; E (TRZAS) ([2]; dosage 250 g/ha): >5 |
| CC(C)(C)CNC(=O)c1cc(I)c(C(F)(F)F)[nH]c1=O [compound 2223] |  |  | E (ZEAMX) ([1]; dosage 250 g/ha): >5; E:E (ZEAMX) ([3]; dosage 25 g/ha): >5 |
| CCc1cc(C(=O)NC(C)CN(C)C)c(=O)[nH]c1C(F)(F)C(F)(F)Cl (stereo not shown) [compound 933] |  |  | E (TRZAS) ([2]; dosage 250 g/ha): >5; E (BRSNS) [4]: >5 |
| COCC(C)NC(=O)c1cc(C)c(C(F)(F)C(F)(F)F)[nH]c1=O (stereo not shown) [compound 272] |  | >5 |  |
